Reference: patent publication US12129244B2, “Modulators of Mas-related G-protein receptor X2 and related products and methods” (Escient Pharmaceuticals, Inc., priority 2022, dated 2024)
Values belong to the molecule of their own block, whether it stands above or below them.

Key:
Human LAD2 cells = assay: Mast Cell Beta-Hexosaminidase Release Assay; type: cell-based; settings: 500 nM Cortistatin-14, read-out: MRGPRX2 Antagonist Activity
Procedure: Human LAD2 cells (NIH) were maintained in an incubator at 37° C. with 5% CO2 and cultured in StemPro-34 serum-free media (Gibco 10639011) supplemented with 2 mM L-glutamine, 100 U/ml penicillin, […] streptomycin and 100 ng/ml SCF (Invitrogen PEP0860), at a concentration of 2-5×10^5 cells/mL, with hemidepletion every 1-2 weeks.
Cells were transferred to SCF-Free medium at 2.5×10^5 cells/mL and kept in an incubator overnight. On the day of the assay, cells were washed twice in Assay Buffer (final concentrations 10 mM HEPES, 137 mM NaCl, 5.6 mM D-glucose, 2.7 mM KCl, 1 mM MgCl, 1.8 mM CalCl2, 0.4 mM Na2HPO4·7H2O, 0.04% BSA, pH=7.4) and plated in a 96-well v-bottom plate at 20,000 cells per well in 80 μL Assay Buffer. Antagonist compounds solubilized at 10 mM in DMSO were diluted in Assay Buffer to 10× final desired concentrations as a 10-point curve (10 μM final top concentration with 1:3 serial dilutions) and 10 μL added per well. Plates were then incubated for 1 hour at 37° C. Agonists were diluted in Assay Buffer to 10× desired concentrations and 10 μL of the appropriate agonist added to each well. The final concentration of Cortistatin-14 (Tocris 3374) used in antagonist assays was 500 nM. Final concentrations of DMSO were kept consistent across the plate. Plates were then incubated in a warm air oven for 30 minutes at 37° C., followed by centrifugation at 4° C. for 5 minutes at 450×g. 50 μL supernatant from each well was then transferred to a 96-well flat bottom plate containing 100 μL substrate solution per well (3.5 mg/mL p-Nitrophenyl-N-acetyl-β-D-glucosaminide (Sigma 487052) in Citrate Buffer containing a final concentration of 40 mM Citric Acid, 20 mM Na2HPO4·7H2O, pH=4.5). To the cell pellets left in the remaining assay buffer, 150 μL 0.1% Triton-X-100 was then added to each well, resuspended by pipetting up and down, and 50 μL cell lysates transferred to a second 96-well flat bottom plate containing 100 μL substrate solution per well. Plates containing transferred supernatant and cell lysates were then incubated in a warm air oven for 90 minutes at 37° C. After incubation, 50 μL of 400 mM Glycine buffer (pH 10.7) was added into each well and the plate was read on a Molecular Devices SpectraMax iD5 plate reader (absorbance at 405 nm with reference filter at 620 nm). After background subtraction, the percentage degranulation (percent beta-hexosaminidase release) was calculated as 100×(supernatant values)/(supernatant+lysate values), followed by analysis using GraphPad Prism software to calculate an IC50 value for each compound.
The activity ranges are denoted as follows: “+++++” denotes antagonist activity <100 nM; “++++” denotes antagonist activity between 100 and 500 nM; “+++” denotes activity between 501 and 1000 nM; “++” denotes activity between 1001 and 2500 nM; and “+” denotes activity >2500 nM.

[1] = Mouse Pharmacokinetics Studies (50 mg/kg oral gavage, plasma LC-MS/MS); type: in vivo; settings: Male C57BL/6 mice, non-fasted; for AUC(0-t) / Cmax / Tmax: mouse; for Tmax: read-out: PK: Tmax
Procedure: Compounds were formulated in 5% DMSO, 5% Solutol, and 90% PBS without Ca and Mg (pH 7.4) at a concentration of 5 mg/mL. Male C57BL/6 mice (n=3/compound) were administered a 50 mg/kg dose of each compound by oral gavage under a non-fasted condition. Blood samples were collected via the saphenous vein onto K2-EDTA at 0.25, 0.5, 1, 2, 4, 8 and 24 hours after dosing, and plasma was prepared and stored at −80° C. until analysis. Plasma sample preparation for analysis was done by protein precipitation using acetonitrile (including Verapamil as an internal standard) followed by centrifugation. Compound concentrations were determined in extracted plasma using LC-MS/MS relative to a 12-point standard curve covering the 1 to 4000 nM range. Non-compartmental analysis using Phoenix WinNonlin was used to estimate pharmacokinetic parameters including area under the curve, clearance, and half-life. The administered dose was confirmed by analysis of residual dosing material by UPLC-UV relative to a single point calibration sample.

human MRGPRX2 = target: T1, human MRGPRX2 (Homo sapiens, UniProt Q96LB1); assay: MRGPRX2 activity: IP-One HTRF antagonist assay in CHO cells versus Cortistatin-14; type: cell-based; settings: CHO cells stably expressing human MRGPRX2; versus 0.3 uM Cortistatin-14 agonist; IP-1 HTRF
T1 construct: expressed in transfected cells
T1 sequence (Q96LB1 1-330): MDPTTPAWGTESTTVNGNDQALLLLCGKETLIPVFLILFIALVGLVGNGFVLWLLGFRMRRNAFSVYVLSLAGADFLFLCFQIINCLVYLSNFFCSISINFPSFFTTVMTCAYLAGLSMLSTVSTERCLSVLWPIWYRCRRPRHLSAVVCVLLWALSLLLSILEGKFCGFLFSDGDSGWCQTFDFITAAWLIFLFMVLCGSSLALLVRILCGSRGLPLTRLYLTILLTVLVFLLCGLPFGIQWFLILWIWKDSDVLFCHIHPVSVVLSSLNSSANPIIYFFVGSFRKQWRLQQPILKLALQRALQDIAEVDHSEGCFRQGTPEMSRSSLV
Procedure: CHO cells stably transfected to express human MRGPRX2 were maintained in an incubator at 37° C. with 5% CO2 and grown in F12 (HAM) media with 10% fetal bovine serum (FBS), 1% Glutamax, 1% penicillin/streptomycin, 800 μg/mL Geneticin (G418), and 300 μg/mL Hygromycin B.
Cells were plated in a 384-well assay plate at 20,000 cells per well in 12 μL of Opti-MEM and kept in an incubator overnight. On the day of the assay, compounds solubilized at 10 mM in DMSO were added as a 10-point curve (30 uM final top concentration with 1:3 serial dilutions) using a Tecan D300E digital dispenser. Agonists were diluted in assay buffer (final concentrations of 5.7 mM Tris-HCl, 43 mM NaCl, 50 mM LiCl, pH=8) and 2 μL of the agonist Cortistatin-14 (CPC Scientific, catalog CORT-002) are added to each well. Final concentrations of agonists were 0.3 μM Cortistatin. Final concentrations of DMSO were kept consistent across the plate. Plates were incubated in the dark for 1 h at 37° C. and then for 1 h at room temperature. IP-1 standards and HTRF detection reagents were added according to the IP-One-Gq Kit purchased from Cisbio (part number 62IPAPEJ) and incubated in the dark for 1 h at room temperature. The plate was read on a Molecular Devices SpectraMax iD5 plate reader. The HTRF ratio was calculated from the raw data and graphed using GraphPad Prism to calculate an IC50 value for each compound.
The activity ranges are denoted as follows: “+++++” denotes antagonist activity <100 nM; “++++” denotes antagonist activity between 100 and 500 nM; “+++” denotes activity between 501 and 1000 nM; “[…]” denotes activity between 1001 and 2500 nM; and “+” denotes activity >2500 nM

Compound: O=C(N[C@@H]1CCC[C@H](Nc2cc(C(F)(F)F)nc3ccc(Cl)cc23)C1)c1ccc(F)nc1 [4-411]
- IC50 (Human LAD2 cells): < 100 nM

Compound: COc1ccc(C(=O)N[C@@H]2CCC[C@H](Nc3cc(C(F)(F)F)nc4ccc(F)cc34)C2)cc1 [Example 1-4]
- AUC 0-24 [1]: 120 µM·h
- AUC(0-t) [1]: 120 µM·h
- Cmax [1]: 8.6 µM
- Tmax [1]: 6.7 h

Compound: Nc1ccc(C(=O)N[C@@H]2CCC[C@H](Nc3cc(C(F)(F)F)nc4ccc(Cl)cc34)C2)cn1 [Example 3-19]
- AUC 0-24 [1]: 220 µM·h
- AUC(0-t) [1]: 220 µM·h
- Cmax [1]: 46 µM
- Tmax [1]: 0.83 h
- IC50 (human MRGPRX2): < 100 nM

Compound: CCS(=O)(=O)Nc1cccc(C(=O)N[C@@H]2CCC[C@H](Nc3cc(C(F)(F)F)nc4ccc(Cl)cc34)C2)c1 [Example 4-241]
- IC50 (Human LAD2 cells): < 100 nM

Compound: CC(=O)Nc1cccc(C(=O)N[C@@H]2CCC[C@H](Nc3cc(C(F)(F)F)nc4ccc(F)cc34)C2)c1 [Example 4-306]
- IC50 (Human LAD2 cells): < 100 nM

Compound: CC(C)S(=O)(=O)Nc1ccc(F)c(C(=O)N[C@@H]2CCC[C@H](Nc3cc(C(F)(F)F)nc4ccc(F)cc34)C2)c1F [Example 4-318]
- IC50 (Human LAD2 cells): 501 to 1000 nM

Compound: CCn1cc(C(=O)N[C@@H]2CCC[C@H](Nc3cc(C(F)(F)F)nc4ccc(Cl)cc34)C2)cn1 [Example 4-366]
- AUC 0-24 [1]: 290 µM·h
- AUC(0-t) [1]: 290 µM·h
- Cmax [1]: 44 µM
- Tmax [1]: 1 h

Compound: O=C(N[C@@H]1CCC[C@H](Nc2cc(C(F)(F)F)nc3ccc(Cl)cc23)C1)c1cnn(C(F)F)c1 [Example 4-399]
- AUC 0-24 [1]: 230 µM·h
- AUC(0-t) [1]: 230 µM·h
- Cmax [1]: 19 µM
- Tmax [1]: 3.7 h

Compound: Cc1nn(C(C)C)cc1C(=O)N[C@@H]1CCC[C@H](Nc2cc(C(F)(F)F)nc3ccc(Cl)cc23)C1 [Example 4-402]
- AUC 0-24 [1]: 150 µM·h
- AUC(0-t) [1]: 150 µM·h
- Cmax [1]: 14 µM
- Tmax [1]: 2 h
- IC50 (human MRGPRX2): < 100 nM

Compound: Cc1ccc(C(=O)N[C@@H]2CCC[C@H](Nc3cc(C(F)(F)F)nc4ccc(Cl)cc34)C2)cn1 [Example 4-403]
- AUC 0-24 [1]: 130 µM·h
- AUC(0-t) [1]: 130 µM·h
- Cmax [1]: 15 µM
- Tmax [1]: 2.3 h
- IC50 (human MRGPRX2): < 100 nM

Compound: Nc1ncccc1C(=O)N[C@@H]1CCC[C@H](Nc2cc(C(F)(F)F)nc3ccc(Cl)cc23)C1 [Example 4-409]
- AUC 0-24 [1]: 280 µM·h
- AUC(0-t) [1]: 280 µM·h
- Cmax [1]: 25 µM
- Tmax [1]: 2.7 h
- IC50 (human MRGPRX2): < 100 nM

Compound: O=C(N[C@@H]1CCC[C@H](Nc2cc(C(F)(F)F)nc3ccc(Cl)cc23)C1)c1c[nH]nc1C(F)F [Example 4-511]
- IC50 (human MRGPRX2): < 100 nM

Compound: Cc1c(C(=O)N[C@@H]2CCC[C@H](Nc3cc(C(F)(F)F)nc4ccc(Cl)cc34)C2)cnn1C1CCNCC1 [Example 19, N-((1R,3S)-3-((6-chloro-2-(trifluoromethyl)quinolin-4-yl)amino)cyclohexyl)-5-methyl-1-(piperidin-4-yl)-1H-pyrazole-4-carboxamide]
- IC50 (human MRGPRX2): < 100 nM

Compound: CC(C)(C)OC(=O)N1CC[C@@H](n2cc(C(=O)N[C@@H]3CCC[C@H](Nc4cc(C(F)(F)F)nc5ccc(Cl)cc45)C3)cn2)C1 [Example 40, tert-butyl (R)-3-(4-(((1R,3S)-3-((6-chloro-2-(trifluoromethyl)quinolin-4-yl)amino)cyclohexyl)carbamoyl)-1H-pyrazol-1-yl)pyrrolidine-1-carboxylate]
- IC50 (human MRGPRX2): < 100 nM

Compound: CC(C)C(=O)N1CCN(C(=O)N[C@@H]2CCC[C@H](Nc3cc(C(F)(F)F)nc4ccc(Cl)cc34)C2)CC1 [Example 44, N-((1R,3S)-3-((6-chloro-2-(trifluoromethyl)quinolin-4-yl)amino)cyclohexyl)-4-isobutyrylpiperazine-1-carboxamide]
- IC50 (Human LAD2 cells): < 100 nM

Compound: CC1(F)CN(C(=O)N[C@@H]2CCC[C@H](Nc3cc(C(F)(F)F)nc4ccc(Cl)cc34)C2)C1 [Example 45, N-((1R,3S)-3-((6-chloro-2-(trifluoromethyl)quinolin-4-yl)amino)cyclohexyl)-3-fluoro-3-methylazetidine-1-carboxamide]
- IC50 (Human LAD2 cells): 100 to 500 nM

Compound: Cc1nc2c(s1)CN(C(=O)N[C@@H]1CCC[C@H](Nc3cc(C(F)(F)F)nc4ccc(Cl)cc34)C1)CC2 [Example 46, N-((1R,3S)-3-((6-chloro-2-(trifluoromethyl)quinolin-4-yl)amino)cyclohexyl)-2-methyl-6,7-dihydrothiazolo[5,4-c]pyridine-5(4H)-carboxamide]
- IC50 (human MRGPRX2): < 100 nM

Other lines, results leading:

- IC50 (human MRGPRX2): < 100 nM
Compound: Cc1c(C(=O)N[C@@H]2CCC[C@H](Nc3cc(C(F)(F)F)nc4ccc(Cl)cc34)C2)ccn1CCF [Example 5-1]

- IC50 (Human LAD2 cells): < 100 nM
Compound: Cc1cc(C(=O)N[C@@H]2CCC[C@H](Nc3cc(C(F)(F)F)nc4ccc(Cl)cc34)C2)cn1CCF [Example 5-2]

- IC50 (Human LAD2 cells): < 100 nM
Compound: N#CCn1cc(C(=O)N[C@@H]2CCC[C@H](Nc3cc(C(F)(F)F)nc4ccc(Cl)cc34)C2)c(Cl)n1 [Example 5-3]

- IC50 (human MRGPRX2): < 100 nM
Compound: Cc1c(C(=O)N[C@@H]2CCC[C@H](Nc3cc(C(F)(F)F)nc4ccc(Cl)cc34)C2)ccn1CC(F)F [Example 5-5]

- IC50 (human MRGPRX2): < 100 nM
Compound: CC(C)(C)OC(=O)N1CCC[C@@H](n2cc(C(=O)N[C@@H]3CCC[C@H](Nc4cc(C(F)(F)F)nc5ccc(Cl)cc45)C3)cn2)C1 [Example 5-13]

- IC50 (human MRGPRX2): < 100 nM
Compound: N#Cc1nn(CCF)cc1C(=O)N[C@@H]1CCC[C@H](Nc2cc(C(F)(F)F)nc3ccc(Cl)cc23)C1 [Example 5-31]

- IC50 (human MRGPRX2): < 100 nM
Compound: O=C(N[C@@H]1CCC[C@H](Nc2cc(C(F)(F)F)nc3ccc(Cl)cc23)C1)N1CCCC1 [Example 8-3]

- IC50 (human MRGPRX2): < 100 nM
Compound: Cn1cc2c(n1)CCN(C(=O)N[C@@H]1CCC[C@H](Nc3cc(C(F)(F)F)nc4ccc(Cl)cc34)C1)C2 [Example 8-16]
